Data on five molecules can be found in PMC11851776, “Structural Basis for the Catalysis and Substrate Specificity of a LarA Racemase with a Broad Substrate Spectrum” (ACS Catalysis, 2025).

Structures are written as SMILES.

In test [1] the target is T1, LarAIp (Isosphaera pallida, UniProt E8QWZ4).
T1 construct: gene Isop_3476; full length, C-terminal Strep-II tag, co-expressed with LarB, LarC and LarE in Lactococcus lactis NZ3900 (structures); apoprotein from E. coli (pBADHisA) plus in vitro-synthesized NPN for substrate assays; 47403 Da after loss of Met1; monomer
Kind of test: X-ray crystal structure, […] Å. Type of test: binding. Conditions: ligand exchange with ~3 mM D/L-2HB at 55 °C 15 min, then 4 °C; active site.

Test [2] addresses T1, LarAIp. Kind of test: X-ray crystal structure, […] Å. Type of test: binding. Particulars: ligand exchange at ~3 mM, 55 °C 15 min, then 4 °C; active site.
In test [3] the target is T1, LarAIp. Kind of test: X-ray crystal structure, […] Å. Conditions: naturally bound in enzyme as purified; active site with NPN tethered to Lys183. Type of test: binding.
For test [4], the target named is T1, LarAIp. Kind of test: competitive-substrate racemization assay, capillary electrophoresis. Type of test: biochemical. Particulars: turnover only (relative kcat/KM); 100 mM Tris-HCl pH 8.0, 30 °C, 1 μM NPN.
Test [5] has as its target T1, LarAIp. Kind of test: racemization assay, D-lactate formed measured by D/L-lactate kit. Particulars: turnover only; conversion to D-lactate also seen in crystal. Type of test: biochemical.

T1 sequence (E8QWZ4 entry or part of it): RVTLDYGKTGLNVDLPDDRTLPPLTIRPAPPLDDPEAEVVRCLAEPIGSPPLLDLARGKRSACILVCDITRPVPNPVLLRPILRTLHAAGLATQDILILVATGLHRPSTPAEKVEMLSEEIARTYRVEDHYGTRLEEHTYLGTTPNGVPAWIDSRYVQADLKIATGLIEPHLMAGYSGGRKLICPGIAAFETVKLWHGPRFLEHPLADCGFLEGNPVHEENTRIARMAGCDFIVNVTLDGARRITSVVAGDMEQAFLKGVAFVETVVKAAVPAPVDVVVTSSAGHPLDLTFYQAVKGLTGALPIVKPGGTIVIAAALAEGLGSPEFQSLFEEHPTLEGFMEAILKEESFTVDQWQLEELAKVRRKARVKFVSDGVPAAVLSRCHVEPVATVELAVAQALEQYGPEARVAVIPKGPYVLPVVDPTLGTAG

As for `CC[C@@H](O)C(=O)O` [D-2HB], on LarAIp [1], the “X-ray crystal structure, 1.38 Å” value is given as 9EID (LarAIp with bound D-2HB).

Consider `CC(C)[C@@H](O)C(=O)O` [D-2HIV], for which the “X-ray crystal structure, 1.65 Å” value on LarAIp [2] was 9EIF (LarAIp with bound D-2HIV).

With `C[C@@H](O)C(=O)O` [D-lactate], the “X-ray crystal structure, 1.74 Å” value on LarAIp [3] is listed as 9EIA (LarAIp with bound D-lactate as purified).

For `O=C(O)[C@@H](O)CO` [L-glycerate], the “competitive-substrate racemization assay, capillary electrophoresis” value at LarAIp [4] was “highest kcat/KM values for L-lactate and 2-hydroxybutyrate (2HB), followed by L-glycerate”.

For the molecule `C[C@H](O)C(=O)O` [L-lactate], the “racemization assay, D-lactate formed measured by D/L-lactate kit” value at LarAIp [5] is “confirmed the conversion of three L-α-hydroxyacids into the corresponding D-enantiomers”.
